In brackets after ≈: the same amount, converted by molar mass.
details: buffer; pH 7.4; 200.0 µM

Row | SMILES | solubility kinetic [µg/mL]
1 | CCCCCC1CCC(c2ccc(/C(N)=N/O)cc2)CC1 (stereo not drawn) | < 0.3
2 | CCN(C(=O)COC(=O)Cc1c[nH]c2ccccc12)C1CCS(=O)(=O)C1 (stereo not drawn) | > 56.8
3 | Cc1ccc(NC(=S)NCc2ccccc2)c(C)c1 | 39.2 (≈ 145 µM)
4 | O=C(COC(=O)c1ccc([N+](=O)[O-])o1)NCc1ccc(F)cc1 | > 48.3
5 | Cc1c(O)ccc(C(=O)CN2CCN(c3ccccc3)CC2)c1O | 12 (≈ 36.8 µM)
6 | CC(C)c1cccc(C(C)C)c1NC(=S)Nc1cccc(Cl)c1 | < 0.4
7 | COC(=O)CCC(=O)NNC(=O)c1ccc([N+](=O)[O-])cc1 | > 44.3
8 | CCc1noc(C)c1C(=O)NCCc1ccc(Cl)cc1 | > 43.9
9 | CNc1ccccc1NC(=O)CCn1c(=S)oc2ccccc21 | 5.6 (≈ 17.1 µM)
10 | CC(NC(=O)COC(=O)c1c[nH]c2ccccc12)c1ccccc1 (stereo not drawn) | 46.2 (≈ 143 µM)
11 | Cc1cccc(OCC(=O)NCC(c2ccco2)N2CCCC2)c1 (stereo not drawn) | > 49.3
12 | COc1ccc(C2=NOC(C(=O)Nc3cccnc3)C2)cc1OC (stereo not drawn) | 46.8 (≈ 143 µM)
13 | O=C(Cc1ncc(C(F)(F)F)cc1Cl)NC1CC1 | > 41.8
14 | O=C(Cc1ccc(Cl)cc1)NC1CCCCCC1 | 10.2 (≈ 38.4 µM)
15 | c1ccc(-c2nc3ccccc3[nH]2)cc1 | 21.9 (≈ 113 µM)
16 | O=S(=O)(Nc1nccs1)c1ccc(F)cc1 | > 38.7
17 | Cc1ccccc1OC(C)C(=O)Nc1ccc2c(c1)OCCO2 (stereo not drawn) | 40.8 (≈ 130 µM)
18 | Cc1nc(COc2cccc(Cl)c2)sc1C(=O)/C=C/N(C)C | > 50.5
19 | CC(O)c1cccc(N=Cc2ccc3ccccc3c2O)c1 (stereo not drawn) | 7.5 (≈ 25.7 µM)
20 | CC(=O)Nc1ccc(N/C=C/C(=O)c2ccc(Br)cc2)cc1 | 1 (≈ 2.78 µM)
21 | O=C(CSc1nc2ccccc2[nH]1)c1c[nH]c2ccccc12 | 0.6 (≈ 1.95 µM)
22 | CN1CC(C(=O)c2cccs2)C(c2ccc(Cl)cc2)C1 (stereo not drawn) | > 45.9
23 | CCOC(=O)c1c(/N=C/N(C)C)sc(C)c1C | 37.3 (≈ 147 µM)
24 | CC(=O)c1cccc(NC(=O)c2cc(-c3cccs3)on2)c1 | < 0.3

Row | SMILES | solubility kinetic [µg/mL]
25 | O=C(c1cccs1)N1CCN(C23CC4CC(CC(C4)C2)C3)CC1 | > 49.6
26 | Cc1noc(C)c1C(=O)NCCc1c(C)[nH]c2ccccc12 | 41.5 (≈ 140 µM)
27 | Cc1cccc(C)c1NC(=S)N1CC(C)OC(C)C1 (stereo not drawn) | > 41.8
28 | COc1ccc(CCNC(=O)COC(=O)Cc2ccccc2[N+](=O)[O-])cc1 | > 55.9
29 | COc1ccc(N(C(C)=O)c2nc3ccccc3[nH]2)cc1 | 38.2 (≈ 136 µM)
30 | Cc1occc1C(=O)N1CCN(c2ccc([N+](=O)[O-])cc2)CC1 | 35.4 (≈ 112 µM)
31 | COc1ccccc1CN1CCCCC1C(=O)O (stereo not drawn) | 35.8 (≈ 144 µM)
32 | Cc1cc(N2CCC(C)CC2)nc(-c2ccccc2O)n1 | < 0.2
33 | C=CCn1c(-c2ccc(Cl)cc2)cnc1SC(C)C(N)=O (stereo not drawn) | 7.1 (≈ 22.1 µM)
34 | Cc1ccc(-c2cc(=O)[nH]c(NCc3ccccc3)n2)cc1 | 0.3 (≈ 1.03 µM)
35 | O=C(CC1CCCCC1)NCc1ccco1 | > 33.2
36 | CC1CC(=O)Nc2ccccc2N1C(=O)CSc1ccc2ccccc2n1 (stereo not drawn) | > 56.6
37 | Cc1cc(NC(=O)CSc2ncnc3sccc23)no1 | 19.3 (≈ 63 µM)
38 | CCCc1cc(=O)[nH]c(SCC(=O)N2c3ccccc3NC(=O)C2(C)C)n1 | 57.4 (≈ 149 µM)
39 | Cc1ccccc1CC(=O)NCc1cccnc1 | > 36
40 | NC(=O)c1ccccc1NC(=O)c1ccc2ccccc2c1 | < 0.3
41 | CC[C@H](C)[C@H](NC(=O)c1ccc(Cl)cc1)C(=O)OCC(=O)c1c(N)n(C)c(=O)n(C)c1=O | 27.7 (≈ 59.6 µM)
42 | Cc1ccc(-n2c(SCC(=O)NCC3CCCO3)nc3ccccc3c2=O)cc1 (stereo not drawn) | 32.4 (≈ 79.1 µM)
43 | COc1ccc(CNC(=S)Nc2ccc(Br)cc2)cc1 | < 0.4
44 | CC(CCn1cccn1)NC(=O)CCc1nnc(C2CCCCC2)o1 (stereo not drawn) | > 51.8
45 | CCOCCCNC(=O)c1cc2c(=O)[nH]c3ccccc3c2s1 | 1.7 (≈ 5.15 µM)
46 | COc1ccc(-c2nsc(SCC(=O)NCC3CCCO3)n2)cc1 (stereo not drawn) | > 54.8
47 | CCCCCCCc1c(C#N)c(N)[nH]c(=S)c1C#N | 31.5 (≈ 115 µM)
48 | COC(=O)c1cc(CNC(=O)Cc2ccsc2)ccc1OC | 47.5 (≈ 149 µM)

Row | SMILES | solubility kinetic [µg/mL]
49 | O=[N+]([O-])c1ccc(O)c(C=Nc2ccc3c(c2)OCO3)c1 | 15.8 (≈ 55.2 µM)
50 | COc1cc(C(=O)NCc2ccc3c(c2)OCO3)c([N+](=O)[O-])cc1OC | 38.3 (≈ 106 µM)
51 | O=C(CCl)N(c1ccccc1)C1CCCCC1 | 36.6 (≈ 145 µM)
52 | O=C(COC(=O)COc1ccc(Cl)cc1)NCc1ccc2c(c1)OCO2 | 2.3 (≈ 6.09 µM)
53 | CCOC(=O)CNC(=S)N(Cc1ccccc1)Cc1cccs1 | 19.8 (≈ 56.8 µM)
54 | OC(c1nc2ccccc2[nH]1)C(O)C(O)C(O)c1nc2ccccc2[nH]1 (stereo not drawn) | 1.4 (≈ 3.95 µM)
55 | Cc1cc(C)c(C#N)c(SCc2ccc(C(=O)O)cc2)n1 | > 44.8
56 | COc1cccc(NC(=O)c2cccc(C(=O)Nc3cccc(OC)c3)c2)c1 | < 0.4
57 | Cl.c1coc(C2=NCCc3ccccc32)c1 | 27.9
58 | Cn1c(CC(=O)NNC(=O)c2ccccc2F)nc2ccccc21 | > 48.9
59 | COC(=O)c1ccc(COc2ccc(/C=N/O)cc2OC)o1 | > 45.8
60 | CCCCNC(=NCc1cccc(C(F)(F)F)c1)Nc1ccccc1 | 45.7 (≈ 131 µM)
61 | Cc1ncsc1C(=O)Nc1cccc(C(F)(F)F)c1 | 40.7 (≈ 142 µM)
62 | COc1ccc(/C=C/C(=O)OCC(=O)NCc2ccccc2Cl)cc1OC | 8.3 (≈ 21.3 µM)
63 | CC(C)CCOc1ccc(C2(C)NC(=O)NC2=O)cc1 (stereo not drawn) | 38.5 (≈ 139 µM)
64 | Clc1ccc(N=c2ssnc2Cl)cc1 | 2.7 (≈ 10.3 µM)
65 | CC1(C)CC(=O)c2cc(NC(=O)c3ccc(F)cc3)c(=O)oc2C1 | 2 (≈ 6.07 µM)
66 | O=C(Nc1ccccc1Cl)c1csc(-c2cccnc2)n1 | 4.3 (≈ 13.6 µM)
67 | CC(=O)c1c(C)n(CCc2ccc(Cl)cc2)c2ccc(O)cc12 | < 0.7
68 | CC1=NN(c2nc(-c3ccc(C#N)cc3)cs2)C(=O)C1 | > 42.3
69 | Cc1ccc(-c2nc3ncccc3o2)cc1NC(=O)C(C)(C)C | 44.4 (≈ 144 µM)
70 | N#CC(C#N)=C1C(=O)N(CCN2CCOCC2)c2ccccc21 | > 46.3
71 | CC(=O)Nc1c(C(=O)Nc2ccc3c(c2)OCO3)oc2ccccc12 | 3.2 (≈ 9.46 µM)
72 | O=C(c1ccc(-c2ccccc2)cc1)N1CCN(c2ccccc2F)CC1 | 1.8 (≈ 4.99 µM)

Row | SMILES | solubility kinetic [µg/mL]
73 | COC(=O)c1sccc1NC(=O)Nc1cc(C)ccc1OC | 11.1 (≈ 34.6 µM)
74 | Cc1ccc(S(=O)(=O)NCCC2=CCCCC2)cc1 | 23 (≈ 82.3 µM)
75 | CC(=O)C(Cc1ccccc1)NC(=O)COc1ccc2c(c1)OCO2 (stereo not drawn) | > 51.2
76 | Cc1ccc(N2C(=O)[C@@H]3C(c4cccnc4)=NO[C@@H]3C2=O)cc1 | > 46.1
77 | Cc1ccc(NC(=O)c2ccccc2NC(=O)c2cccs2)cc1 | < 0.4
78 | CC(NS(=O)(=O)c1ccc2c(c1)CC(=O)N2C)c1ccccc1 (stereo not drawn) | > 49.6
79 | COc1ccc(/C=C/C(=O)OCC(=O)NC2CCCCCCC2)cc1 | 7.6 (≈ 22 µM)
80 | CCN(CC)c1ccc(NC(=O)CN(C)Cc2cccs2)cc1 | 39.1 (≈ 118 µM)
81 | CC(=O)Nc1c(-c2ccccc2)nc2ccc(Cl)cn12 | 42.7 (≈ 149 µM)
82 | CC1CCN(C2CCN(C(=O)c3ccccc3F)CC2)CC1 | 34.7 (≈ 114 µM)
83 | O=C(COC(=O)Cc1ccc(F)cc1)NCCc1ccccc1 | > 47.3
84 | COc1ccc(OC)c(NC(=O)c2ccno2)c1 | > 37.2
85 | CC[n+]1c(C)n(-c2ccccc2)c2ccc(NC(C)=O)cc21.[I-] | > 63.2
86 | CCN(CC(=O)Nc1ccc2c(c1)OCCO2)CC(=O)Nc1ccccc1C(F)(F)F.O=C(O)C(=O)O | 47.7
87 | COc1ccc(-n2c(O)c(C=NCc3ccc4c(c3)OCO4)c(=O)[nH]c2=O)cc1 | 6.8 (≈ 17.2 µM)
88 | CC(=O)N1CCN(c2nnc(-c3ccc(C)cc3)c3ccccc23)CC1 | > 52
89 | CSc1cccc(NC(N)=S)c1 | 29.2 (≈ 147 µM)
90 | Cc1c(C(=O)Nc2c(C)n(C)n(-c3ccccc3)c2=O)oc2ccc(Cl)cc12 | > 59.4
91 | O=[N+]([O-])c1cc(C(F)(F)F)ccc1NCCc1ccncc1 | 1.6 (≈ 5.14 µM)
92 | CCOc1cc(CNCc2ccccn2)cc(Cl)c1OCC.Cl | 35.5
93 | CC(C)(C)N(Cc1ccccc1)C(=O)COC(=O)C1CC1 | > 43.4
94 | O=C(Nc1ccc(S(=O)(=O)N2CCCC2)cc1)c1ccc([N+](=O)[O-])o1 | 6.8 (≈ 18.6 µM)
95 | Cc1nc(-c2ccc(C(=O)NCCO)cc2)cs1 | > 39.3
96 | COc1ccc(C(O)C(C)NC(C)C(O)c2ccc(OC)cc2)cc1 (stereo not drawn) | 43.3 (≈ 125 µM)

Row | SMILES | solubility kinetic [µg/mL]
97 | O=C(Nc1ccc2oc(-c3ccncc3)nc2c1)c1ccccc1 | < 0.2
98 | CC(OC(=O)c1ccncc1)C(=O)NC1CCCC1 (stereo not drawn) | > 39.3
99 | CC(C)CCNC(=O)C1CCC(=O)N1CCc1ccccc1 (stereo not drawn) | 42.8 (≈ 142 µM)
100 | COc1ccccc1C/C(N)=N/OC(=O)COc1cccc(C)c1C | 8.2 (≈ 23.9 µM)
101 | O=C(CN1C(=O)NC2(CCSC2)C1=O)NCc1ccccc1 (stereo not drawn) | > 47.9
102 | CS(=O)(=O)N1CCn2c1nc1ccccc12 | > 35.6
103 | C/C(=N\O)c1ccc2c(c1)CC(C)O2 (stereo not drawn) | > 28.7
104 | O=C(CN1C(=O)c2ccccc2C1=O)NC1CCCCCC1 | 12.4 (≈ 41.3 µM)
105 | COc1ccc(CCC(C)NCc2ccc(F)cc2)cc1 (stereo not drawn) | 31.8 (≈ 111 µM)
106 | Cc1ccc(SCC(=O)Nc2ccc3c(c2)C(=O)N(C)C3=O)cc1 | 3.2 (≈ 9.4 µM)
107 | COc1ccc(C2=COc3ccccc3C(=O)N2)cc1 | 11.4 (≈ 42.7 µM)
108 | Cc1cccc(NC2=C(Cl)C(=O)OC2OC(C)C)c1 (stereo not drawn) | > 42.3
109 | C=CCNC(=O)CN1c2cccc3cccc(c23)S1(=O)=O | 40.4 (≈ 134 µM)
110 | COC(=O)c1[nH]c2cc(OC)ccc2c1NC(=O)c1c(F)cccc1F | 4.9 (≈ 13.6 µM)
111 | Cc1ccc2c(c1)C1C[N+](C)(CC(=O)c3ccc(Cl)cc3Cl)CCC1N2C(=O)c1ccc(F)cc1.[Cl-] (stereo not drawn) | > 82.2
112 | COc1ccc(NC(=O)c2cccnc2SC)cc1OC | 19.2 (≈ 63.1 µM)
113 | O=C(COC(=O)c1cccs1)Nc1cccc(Cl)c1 | 7.6 (≈ 25.7 µM)
114 | Brc1cccc(CNCc2ccncc2)c1 | > 41.6
115 | CC(C)OP(=O)(c1ccc(N(C)C)cc1)C(O)c1cccnc1 (stereo not drawn) | > 50.2
116 | CC(C)CC(=O)Nc1ccc(C(=O)Nc2cccc(O)c2)cc1 | 26.7 (≈ 85.5 µM)
117 | CCCCn1c(SCC(=O)NC2CC2)nc2ccccc2c1=O | 2.6 (≈ 7.84 µM)
118 | N/C(=N\OC(=O)C1CCCCC1)c1ccc(Cl)cc1 | 8.1 (≈ 28.9 µM)

Source: PubChem BioAssay AID1996
